Assay results taken from the supplement of paper PMC11061612.

Columns and labels:
Test in all cases: combination Emax (second highest fraction inhibited in the dose matrix, 72 h); higher = more inhibition; extreme values may be limits of the assay
RD (Rhabdomyosarcoma) = system: RD (Rhabdomyosarcoma)
In short: (§1)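 Cell lines in DMEM/F12 or RPMI with 10% FBS were plated in 1536-well plates, held 24 hours at 37°C, 5% CO2, then given two-drug dose matrices for 72 hours (DMSO typically 0.2%). Viability was read by CellTiter-Glo 2.0 luminescence and scaled as inhibition from 0 (vehicle wells) to 1 (blank wells). Combination Emax is the second-highest inhibition in the matrix; Bliss excess is observed combination effect minus expected EA + EB − EA·EB, EA and EB being single-agent effects.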

[1] = system: 8505C (Thyroid Gland Carcinoma)
In short: as §1

[2] = system: JHH-4 (Hepatocellular Carcinoma)
In short: as §1

[3] = system: RPMI-8226 (Plasma Cell Myeloma)
In short: as §1

[4] = system: SNU-398 (Hepatocellular Carcinoma)
In short: as §1

[5] = system: SUP-B15 (B-Lymphoblastic Leukemia)
In short: as §1

[6] = system: T-T (Esophageal Squamous Cell Carcinoma)
In short: as §1

[7] = system: KMS-12-BM (Plasma Cell Myeloma)
In short: as §1

G-361 (Melanoma) = system: G-361 (Melanoma)
In short: as §1

[8] = system: ESO51 (Esophageal Adenocarcinoma)
In short: as §1

[9] = system: NCCIT (Other Solid Carcinomas)
In short: as §1

[10] = system: KP-3 (Pancreatic Carcinoma)
In short: as §1

[11] = system: H9 (T-Cell Non-Hodgkin's Lymphoma)
In short: as §1

NCI-H2731 (Mesothelioma) = system: NCI-H2731 (Mesothelioma)
In short: as §1

[12] = system: HCC1187 (Breast Carcinoma)
In short: as §1

[13] = system: PC-3 (Prostate Carcinoma)
In short: as §1

[14] = system: MOLM-13 (Acute Myeloid Leukemia)
In short: as §1

[15] = system: NCI-H526 (Small Cell Lung Carcinoma)
In short: as §1

[16] = system: DAN-G (Pancreatic Carcinoma)
In short: as §1

SMILES | combination Emax (RD (Rhabdomyosarcoma)) | combination Emax [1] | combination Emax [2] | combination Emax [3] | combination Emax [4] | combination Emax [5] | combination Emax [6] | combination Emax [7] | combination Emax (G-361 (Melanoma)) | combination Emax [8] | combination Emax [9] | combination Emax [10] | combination Emax [11] | combination Emax (NCI-H2731 (Mesothelioma)) | combination Emax [12] | combination Emax [13] | combination Emax [14] | combination Emax [15] | combination Emax [16]
CC(=O)c1c(C)c2cnc(Nc3ccc(N4CCNCC4)cn3)nc2n(C2CCCC2)c1=O [Palbociclib] + Cn1cnc2c(F)c(Nc3ccc(Br)cc3Cl)c(C(=O)NOCCO)cc21 [Selumetinib] (first compound max 10 µM, 7x7, partner max 10 µM) | 0.569 | 0.364 | 0.59 | 0.547 | 0.376 | 0.661 | 0.46 | 0.642 | 0.721 | 0.601 | 0.276 | 0.244 | 0.956 | 0.191 | 0.129 | 0.145 | 0.982 | 0.0977 | 0.43
NC1(C(=O)N[C@@H](CCO)c2ccc(Cl)cc2)CCN(c2ncnc3[nH]ccc23)CC1 [Capivasertib] + Cn1cnc2c(F)c(Nc3ccc(Br)cc3Cl)c(C(=O)NOCCO)cc21 [Selumetinib] (first compound max 10 µM, 7x7, partner max 10 µM) | 0.633 | 0.5 | 0.663 | 0.43 | 0.472 | 0.805 | 0.429 | 0.427 | 0.83 | 0.624 | 0.55 | 0.417 | 1 | 0.306 | 0.296 | 0.258 | 0.986 | 0.249 | 0.65
NC1(C(=O)N[C@@H](CCO)c2ccc(Cl)cc2)CCN(c2ncnc3[nH]ccc23)CC1 [Capivasertib] + CCN(CCO)CCCOc1ccc2c(Nc3cc(CC(=O)Nc4cccc(F)c4)[nH]n3)ncnc2c1 [AZD2811] (first compound max 10 µM, 7x7, partner max 1 µM) | 0.349 | 0.304 | 0.226 | 0.422 | 0.542 | 0.929 | 0.331 | 0.522 | 0.46 | 0.248 | 0.624 | 0.284 | 1 | 0.398 | 0.833 | 0.401 | 0.993 | 0.588 | 0.43
CS(=O)(=O)CCNCc1ccc(-c2ccc3ncnc(Nc4ccc(OCc5cccc(F)c5)c(Cl)c4)c3c2)o1 [Lapatinib] + C[C@@H](Oc1cc(-c2cnn(C3CCNCC3)c2)cnc1N)c1c(Cl)ccc(F)c1Cl [Crizotinib] (first compound max 10 µM, 7x7, partner max 10 µM) | 0.891 | 0.721 | 0.546 | 0.679 | 0.77 | 0.963 | 0.938 | 0.965 | 0.972 | 0.997 | 0.599 | 0.557 | 0.983 | 0.921 | 0.715 | 0.494 | 0.996 | 0.732 | 0.991
CS(=O)(=O)CCNCc1ccc(-c2ccc3ncnc(Nc4ccc(OCc5cccc(F)c5)c(Cl)c4)c3c2)o1 [Lapatinib] + NC1(c2ccc(-c3nc4ccn5c(=O)[nH]nc5c4cc3-c3ccccc3)cc2)CCC1 [MK-2206] (first compound max 10 µM, 7x7, partner max 10 µM) |  |  |  |  |  |  | 0.928 |  |  |  | 0.883 | 0.205 | 0.94 | 0.894 |  |  |  | 0.864 | 
NC1(C(=O)N[C@@H](CCO)c2ccc(Cl)cc2)CCN(c2ncnc3[nH]ccc23)CC1 [Capivasertib] + C[C@@H]1COCCN1C2=NC(=NC(=C2)C3(CC3)[S@](=N)(=O)C)C4=C5C=CNC5=NC=C4 [AZD6738] (first compound max 10 µM, 7x7, partner max 10 µM) | 0.402 | 0.475 | 0.309 | 0.875 | 0.752 | 0.986 | 0.389 | 0.823 | 0.614 | 0.817 | 0.66 | 0.318 | 1 | 0.514 | 0.51 | 0.593 | 0.982 | 0.779 | 0.721
Cc1nc(Nc2ncc(C(=O)Nc3c(C)cccc3Cl)s2)cc(N2CCN(CCO)CC2)n1 [Dasatinib] + CC(=O)Nc1cccc(-n2c(=O)n(C3CC3)c(=O)c3c(Nc4ccc(I)cc4F)n(C)c(=O)c(C)c32)c1 [Trametinib] (first compound max 2 µM, 7x7, partner max 1 µM) | 0.769 | 0.628 | 1 | 0.239 | 0.501 | 0.952 | 0.5 | 0.396 | 0.753 | 0.949 | 0.366 | 0.61 | 0.892 | 0.361 | 0.137 | 0.243 | 0.955 | 0.0355 | 0.962
NC1(C(=O)N[C@@H](CCO)c2ccc(Cl)cc2)CCN(c2ncnc3[nH]ccc23)CC1 [Capivasertib] + CC(C)n1c(=O)n(C)c2cnc3cc(F)c(-c4ccc(OCCCN5CCCCC5)nc4)cc3c21 [AZD1390] (first compound max 10 µM, 7x7, partner max 0.3 µM) | 0.295 | 0.195 | 0.178 | 0.135 | 0.25 | 0.398 | 0.282 | 0.415 | 0.282 | 0.246 | 0.54 | 0.203 | 0.78 | 0.265 | 0.296 | 0.322 | 0.739 | 0.282 | 0.292
NC1(C(=O)N[C@@H](CCO)c2ccc(Cl)cc2)CCN(c2ncnc3[nH]ccc23)CC1 [Capivasertib] + COc1nnc2ccc(N3CCC(c4ccc(OCCN5CCN(C)C(=O)[C@H]5C)cc4)CC3)nn12 [AZD5153] (first compound max 10 µM, 7x7, partner max 1 µM) | 0.683 | 0.405 | 0.324 | 0.878 | 0.565 | 1 | 0.527 | 1 | 0.891 | 0.622 | 0.873 | 0.296 | 1 | 0.588 | 0.309 | 0.45 | 1 | 0.983 | 0.466
CC(=O)c1c(C)c2cnc(Nc3ccc(N4CCNCC4)cn3)nc2n(C2CCCC2)c1=O [Palbociclib] + Cc1c2c(nn1C)CSCc1cc(n(C)n1)CSc1cc(c3ccccc3c1)OCCCc1c(C(=O)O)n(C)c3c-2c(Cl)ccc13 [AZD5991] (first compound max 10 µM, 7x7, partner max 1 µM) | 0.317 | 0.245 | 0.397 | 0.939 | 0.944 | 0.986 | 0.799 | 1 | 0.743 | 0.218 | 0.809 | 0.221 | 0.742 | 0.214 | 1 | 0.169 | 1 | 0.391 | 0.222
CC(=O)c1c(C)c2cnc(Nc3ccc(N4CCNCC4)cn3)nc2n(C2CCCC2)c1=O [Palbociclib] + CC1(C)CCC(CN2CCN(c3ccc(C(=O)NS(=O)(=O)c4ccc(NCC5CCOCC5)c([N+](=O)[O-])c4)c(Oc4cnc5[nH]ccc5c4)c3)CC2)=C(c2ccc(Cl)cc2)C1 [Venetoclax] (first compound max 10 µM, 7x7, partner max 1 µM) | 0.331 | 0.047 | 0.328 | 0.387 | 0.326 | 0.989 | 0.242 | 1 | 0.488 | 0.288 | 0.279 | 0.0792 | 0.626 | 0.211 | 0.198 | 0.1 | 1 | 0.71 | 0.178
CS(=O)(=O)CCNCc1ccc(-c2ccc3ncnc(Nc4ccc(OCc5cccc(F)c5)c(Cl)c4)c3c2)o1 [Lapatinib] + Cn1cnc2c(F)c(Nc3ccc(Br)cc3Cl)c(C(=O)NOCCO)cc21 [Selumetinib] (first compound max 10 µM, 7x7, partner max 10 µM) |  |  |  |  |  |  | 0.843 |  |  |  | 0.255 | 0.367 |  | 0.35 |  |  |  | 0.164 | 
NC1(C(=O)N[C@@H](CCO)c2ccc(Cl)cc2)CCN(c2ncnc3[nH]ccc23)CC1 [Capivasertib] + CC(=O)c1c(C)c2cnc(Nc3ccc(N4CCNCC4)cn3)nc2n(C2CCCC2)c1=O [Palbociclib] (first compound max 10 µM, 7x7, partner max 10 µM) | 0.463 | 0.187 | 0.466 | 0.483 | 0.472 | 0.94 | 0.344 | 0.734 | 0.443 | 0.356 | 0.537 | 0.25 | 0.985 | 0.361 | 0.257 | 0.376 | 0.98 | 0.15 | 0.355
CCc1c2c(nc3ccc(O)cc13)-c1cc3c(c(=O)n1C2)COC(=O)[C@]3(O)CC [SN-38] + O=C(c1cc(Cc2n[nH]c(=O)c3ccccc23)ccc1F)N1CCN(C(=O)C2CC2)CC1 [Olaparib] (first compound max 0.3 µM, 7x7, partner max 10 µM) |  | 0.849 |  |  | 0.255 |  | 0.835 |  | 0.459 | 0.624 | 0.274 | 0.0787 | 1 | 0.503 | 0.467 |  |  | 1 | 
